Holding throughout (type): functional, Homo sapiens
Holding throughout (design): dose or concentration left out as unconfirmed

The test system of assay [1] is Colon cancer organoid. Briefly: Optimized Dual-Glo assay to identify co-culture induced drug vulnerabilities using donated chemical probes and chemogenomics kinase set in O06 CRC organoid and F06 CAF mono and co-culture. […] Cell viability is reported both mono and co-culture models.
The test system of assay [2] is Colon cancer organoid. In words: Optimized Dual-Glo assay to identify co-culture induced drug vulnerabilities using donated chemical probes and chemogenomics kinase set in O14 CRC organoid and F14 CAF mono and co-culture. […] Cell viability is reported both mono and co-culture models.
Assay [3] deals with Colon cancer organoid. Briefly: Optimized Dual-Glo assay to identify co-culture induced drug vulnerabilities using donated chemical probes and chemogenomics kinase set in O20 CRC organoid and F20 CAF mono and co-culture. […] Cell viability is reported both mono and co-culture models.
Where [4] appears, read: Culture type Co-Culture, Transduced with Lucferase2-P2A-EGFP lentivirus.
[5] abbreviates: Culture type Co-Culture, Transduced with Renilla-dsRed lentivirus.
Setting [6] is: Culture type Mono-Culture, Transduced with Lucferase2-P2A-EGFP lentivirus.
[7] abbreviates: Culture type Mono-Culture, Transduced with Renilla-dsRed lentivirus.

Each structure is given as a SMILES string.

For the compound `Cn1c(C2(NC(=O)c3ccc(NCC4CCCCC4)nc3)CCC2)nc2ccc(/C=C/C(=O)O)cc21` [BI 7656], the “Cell Viability” value came out at 130.07% with Colon cancer organoid [1] (setting [4]); 105.71% in the assay with Colon cancer organoid [1] (setting [5]); 133.812% in the assay on Colon cancer organoid [1] (setting [6]); 120.577% in the assay on Colon cancer organoid [1] (setting [7]); 115.178% in the assay on Colon cancer organoid [2] (setting [4]); 112.206% in the assay on Colon cancer organoid [2] (setting [5]). Besides, the “Cell Viability” value with Colon cancer organoid [2] (setting [6]) was determined as 113.679%; in the assay on Colon cancer organoid [2] (setting [7]) it was 103.836%; in the assay with Colon cancer organoid [3] (setting [4]), 93.1126%; in the assay with Colon cancer organoid [3] (setting [5]), 134.723%; in the assay on Colon cancer organoid [3] (setting [6]), 113.339%; in the assay on Colon cancer organoid [3] (setting [7]), 113.787%.

`C[C@@]1(Cc2ccc(C#N)cc2)C(=O)N(c2cc(Cl)cc(Cl)c2)c2ncc(C(=O)NC3(c4nc(C5CCC5)no4)CC3)n21` [BI 9446]: the “Cell Viability” value was determined as 85.7019% with Colon cancer organoid [1] (setting [4]); 100.079% with Colon cancer organoid [1] (setting [5]); 74.4511% with Colon cancer organoid [1] (setting [6]); 102.688% in the assay on Colon cancer organoid [1] (setting [7]); 88.6006% with Colon cancer organoid [2] (setting [4]); 103.948% in the assay on Colon cancer organoid [2] (setting [5]). Besides, the “Cell Viability” value with Colon cancer organoid [2] (setting [6]) came to 113.423%; in the assay on Colon cancer organoid [2] (setting [7]), 106.796%; in the assay with Colon cancer organoid [3] (setting [4]) it was 72.3076%; in the assay on Colon cancer organoid [3] (setting [5]), 136.535%; with Colon cancer organoid [3] (setting [6]), 95.8483%; in the assay on Colon cancer organoid [3] (setting [7]), 102.524%.

For `CC(=O)N1CCC(c2ccc(C(=O)NC(=N)N)cc2C(F)(F)F)CC1` [BI 9627], the “Cell Viability” value in the assay with Colon cancer organoid [1] (setting [4]) is listed as 150.087%; with Colon cancer organoid [1] (setting [5]), 189.046%; with Colon cancer organoid [1] (setting [6]) it was 112.79%; with Colon cancer organoid [1] (setting [7]) it was 98.1409%; in the assay with Colon cancer organoid [2] (setting [4]), 82.2007%; with Colon cancer organoid [2] (setting [5]), 132.273%. In addition, the “Cell Viability” value in the assay on Colon cancer organoid [2] (setting [6]) came to 72.3529%; in the assay on Colon cancer organoid [2] (setting [7]) it was 98.3882%; in the assay on Colon cancer organoid [3] (setting [4]) it was 96.0735%; with Colon cancer organoid [3] (setting [5]), 101.417%; in the assay with Colon cancer organoid [3] (setting [6]) it was 111.956%; in the assay on Colon cancer organoid [3] (setting [7]), 89.7357%.

For `CCC(=O)N[C@H]1CC[C@@H](C(=O)N(C)c2ccc(-c3nc4ccccc4o3)cc2)C1` [BI 99179], the “Cell Viability” value with Colon cancer organoid [1] (setting [4]) turned out to be 7.905%; in the assay on Colon cancer organoid [1] (setting [5]), 448.988%; in the assay with Colon cancer organoid [1] (setting [6]), 13.2074%; in the assay on Colon cancer organoid [1] (setting [7]), 86.3048%; in the assay on Colon cancer organoid [2] (setting [4]), 36.4327%; with Colon cancer organoid [2] (setting [5]) it was 197.223%. In addition, the “Cell Viability” value with Colon cancer organoid [2] (setting [6]) is 76.5692%; in the assay with Colon cancer organoid [2] (setting [7]), 108.528%; with Colon cancer organoid [3] (setting [4]), 33.9891%; in the assay with Colon cancer organoid [3] (setting [5]) it was 149.12%; in the assay with Colon cancer organoid [3] (setting [6]), 57.7768%; with Colon cancer organoid [3] (setting [7]), 75.3735%.

For the compound `CCC(=O)N[C@@H]1CC[C@H](C(=O)N(C)c2ccc(-c3nc4ccccc4o3)cc2)C1` [BI 99990], the “Cell Viability” value with Colon cancer organoid [1] (setting [4]) came to 135.832%; with Colon cancer organoid [1] (setting [5]) it was 173.184%; in the assay on Colon cancer organoid [1] (setting [6]), 107.841%; in the assay on Colon cancer organoid [1] (setting [7]), 87.7071%; with Colon cancer organoid [2] (setting [4]), 87.159%; with Colon cancer organoid [2] (setting [5]), 112.98%. Also, the “Cell Viability” value in the assay on Colon cancer organoid [2] (setting [6]) came to 99.3505%; in the assay with Colon cancer organoid [2] (setting [7]), 100.76%; with Colon cancer organoid [3] (setting [4]), 115.817%; with Colon cancer organoid [3] (setting [5]), 121.154%; in the assay with Colon cancer organoid [3] (setting [6]), 99.9084%; with Colon cancer organoid [3] (setting [7]), 146.017%.
